For test [1], the system named is patients. The test is described as follows: Randomized open-label study: change in BMD by DEXA, bicalutamide 150 mg daily vs medical castration. The conditions noted are these: for lumbar spine BMD increase compared to pre-treatment baseline: 150 mg. The format is in vivo, human. The procedure: Inclusion criteria for a prospective, multicentre, randomized, open-label, parallel-group study, included: disease stage T1-T4, Nx, and M0 for which immediate hormonal ablation was indicated; and Eastern Cooperative Oncology Group (ECOG) performance status 0 or 1.
Patients were randomized in a 1:1 ratio to receive either bicalutamide 150 mg daily or medical castration with a luteinizing hormone-releasing hormone (LHRH) agonist for 2 years.
Primary efficacy endpoints were percentage change from baseline in BMD measures (lumbar spine and hip) at 96 weeks.
An analysis of covariance (ANCOVA) model was used to analyse the primary efficacy endpoints. Analysis was performed for patients for whom data were available at baseline and at Week 96. Subsidiary analyses were performed, carrying forward the last patient assessment at time points where data were missing. A p value of ≦0.017 was considered statistically significant.
Secondary endpoints included: percentage change in lumbar spine-BMD and hip-BMD from baseline to 24, 48 and 72 weeks.
Secondary efficacy endpoints were also analyzed using an ANCOVA model. BMD were assessed via dual energy X-ray absorptiometry (DEXA).
103 patients were recruited to the study and randomized 1:1 to receive either bicalutamide (R/S racemate) 150 mg (n=51) or medical castration (n=52). • The treatment groups were well balanced at baseline (Table 1). • The median testosterone level at baseline was 414.7 ng/dL in the bicalutamide 150 mg group (n=48) and 477.9 ng/dL in the medical castration group (n=52). • Median baseline values for albumin, total calcium, 25-hydroxy vitamin D, and thyroid-stimulating hormone were similar in the two treatment groups. Bone Mineral Density

The test system of test [2] is patients. The conditions noted are these: Casodex 150 monotherapy, preliminary data; cited from earlier work.
A further test relates to humans. The following applies: single agent therapy, blood; cited from earlier work.
Another test has as its system adult men. The following applies: cited from earlier work.

With `CC(O)(CS(=O)(=O)c1ccc(F)cc1)C(=O)Nc1ccc(C#N)c(C(F)(F)F)c1` (stereo not drawn) [Bicalutamide, 4′-cyano-α′,α′,α′-trifluoro-3-(4-fluorophenylsulphonyl)-2-hydroxy-2-methylpropiono-m-toluidide], the “lumbar spine BMD increase compared to pre-treatment baseline” value in the test on patients [1] (24 weeks) is 1.05%; in the test with patients [1] (48 weeks), 1.76%; with patients [1] (72 weeks), 2.22%. Besides, the “BMD compared to baseline (in words)” value in the test with patients [1] (in vivo) is given as “statistically significant increase in BMD compared to baseline”. Besides, the “bone mineral density (in words)” value with patients [2] is on record as “maintains bone mineral density”. The “basal level of total testosterone” value in the test on humans is on record as “approximate doubling”.

On to `CC/C(=C(\c1ccccc1)c1ccc(OCCN(C)C)cc1)c1ccccc1` [tamoxifen], for which the “testosterone and LH (in words)” value in the test with adult men is “increase testosterone and LH”.

Source of the values: patent US20050288230A1, “Non-steroidal anti-androgen therapy” (AstraZeneca AB, priority 2002, published 2005).
